Earlier results in article PMC7524040 (Biochemistry, 2020).
Ends that are not written are not given here.

Experiments:
[1] = system: cardiac heteromeric Kir3.1/3.4 channel; conditions: heteromeric Kir3.1/Kir3.4 channels

**Q.** What does the source list for “Tertiapin (ALCNCNRIIIPHMCWKKCGKK; not fully specified (C-terminus, bridges); ends and bridges not checked; UniProt P56587 1-21, looked up) [TPN]”?
**A.** IC50 (native IKACh channel): 30 nM; decrease in the inhibitory action after air oxidation of M13 [1]: 4- to 5 fold
